Test results taken from US20050137251A1, “Dexanabinol and dexanabinol analogs regulate inflammation related genes” (priority 2002, published 2005).

Key:
recombinant COX-2 = recombinant COX-2 (Homo sapiens, UniProt P35354); test: In vitro enzymatic activity of recombinant COX-2 (PGF2α EIA); assay type: biochemical; conditions: purified COX-2, test compounds up to 10 μM, 5 min preincubation, substrate AA
COX-2 gene expression [1] = test: COX-2 gene expression in LPS stimulated RAW 264.7 cells, real-time RT-PCR; assay type: cell-based, mouse; conditions: 10 μM, 2.5 hrs after LPS activation
Protocol: RAW 264.7 macrophages, a mouse cell line (ATCC # TIB 71), were grown in Dulbecco's modified Eagle's medium (DMEM) with 4 mM L-glutamine adjusted to contain 1.5 g/L sodium bicarbonate, 4.5 g/L glucose, and 10% heat inactivated fetal bovine serum. Cells were grown in tissue culture flasks and seeded at appropriate density into 24 wells tissue culture plates. 0.5×10^6 Raw cells in one milliliter were stimulated with 2 μg/ml Lipopolysaccharide E. coli 055:B5 (DIFCO Laboratories). The mouse macrophages were pre-treated for one hour with controls or 10 μM of dexanabinol and its analogs, unless indicated otherwise, and later on activated with LPS.
The results of this experiment are expressed as fold activation of COX-2 over non-activated macrophages, after normalization to cyclophilin A expression. When cells are treated with vehicle only we observe a maximal 6-fold increase in COX-2 expression. A decrease of 67% in RNA levels of COX-2 is observed when the activation is carried out in presence of 10 μM dexanabinol.
To test if COX-2 is the sole gene whose transcription is affected by compounds of the invention, additional genes were further analyzed by real-time RT-PCR in the above-described model of activated macrophages. This part of the study was performed with PRS-211,092 at doses up to 20 μM.

IL-1β secretion = IL-1β secretion in LPS activated macrophages; assay type: cell-based; conditions: Mus musculus, Macrophage, read-out: IC50 for inhibition of IL-1β secretion
Text: The technique used to quantify the amount of a given protein in a liquid sample, either tissue culture supernatant or body fluid, is based on Enzyme Linked ImmunoSorbent Assay (ELISA) methodology. Either commercially available or established in house, the assay is based on the capture of the protein of interest by specific antibodies bound to the bottom of an ELISA plate well. Unbound material is washed away, the captured protein is then exposed to a secondary antibody generally labeled with horseradish peroxidase (HRP) or alkaline phosphatase (ALP). Again the unbound material is washed away, the samples are then incubated with the appropriate substrate yielding a colorimetric reaction. The reaction is stopped and reading is carried out in a spectrophotometer at the appropriate wavelength. Samples are tested at least in duplicate and the appropriate standard curve, consisting of serial dilutions of the recombinant target protein, is incorporated on each plate. Concentration of the protein in the sample is calculated from the standard curve.
RAW 264.7 macrophages, a mouse cell line (ATCC # TIB 71), were grown in Dulbecco's modified Eagle's medium (DMEM) with 4 mM L-glutamine adjusted to contain 1.5 g/L sodium bicarbonate, 4.5 g/L glucose, and 10% heat inactivated fetal bovine serum. […]

IL-2 gene expression = IL-2 gene expression in Jurkat T cells activated with PMA and calcium ionophore; assay type: cell-based, human; conditions: 10 μM, RNA 6 hrs after activation
Protocol: The human acute lymphoma T cell line Jurkat (ATCC # TIB 152) was used to test the possible immunosuppressive effect of dexanabinol and its analogs on T cell activation. […] 2×10^6 cells in one milliliter were stimulated using 10 ng/ml of PMA (Sigma) and 1 μM A23187 calcium ionophore (Sigma). […] The controls and test compounds were added at indicated concentrations one hour before stimulation.
The results are plotted after normalization to cyclophilin A expression.

Aspc-1 = Aspc-1 pancreatic tumor cell proliferation (crystal violet); assay type: cell-based; conditions: up to 15 μM, 24 hours
Protocol: (§1) Cells from several tumor-derived cell lines are tested for their proliferation capacity in presence of our test compounds. Pancreatic tumor cell lines were obtained from ATCC. Panc-1 (ATCC # CRL-1469) were cultured in DMEM supplemented with 4 mM Glutamine, 4.5 g/L glucose, 1.5 g/L bicarbonate, antibiotics (penicillin, nystatin and streptomycin) and 10% heat inactivated fetal calf serum. Aspc-1 (ATCC # CRL-1682) were cultured in RPMI supplemented with 2 mM Glutamine, 10 mM HEPES, 1 mM sodium pyruvate, 4.5 g/L glucose, 1.5 g/L bicarbonate, antibiotics (penicillin, nystatin and streptomycin) and 20% heat inactivated fetal calf serum. Cells were seeded in a 24 well plate (10^5 cells/ml/well) and grown overnight. The cells are incubated with the test compounds (1-100 μM) or vehicle (0.1% DMSO final concentration). Cell viability was determined 24 hours later using standard crystal violet staining. The culture medium was removed from the wells and the cells were fixed by adding 1 ml/well of 2% formaldehyde in PBS for 10 minutes. […] The plates were agitated for 15 minutes at room temperature and 100 μl were transferred in duplicate to a 96 well plate for reading. Optical density (OD) of the cells was measured at 620 nm in an ELISA reader and results are expressed as % viable cells. Absorbance of untreated cells is recorded as 100%.

Panc-1 = Panc-1 pancreatic tumor cell proliferation (crystal violet); assay type: cell-based; conditions: Homo sapiens, 24 hours, read-out: Inhibition of Panc-1 cells proliferation
Protocol: as §1

IL-6 gene expression = IL-6 gene expression in MCAo mice brains; conditions: 5 mg/kg i.v., 18 hrs following MCAo
COX-2 gene expression [2] = test: COX-2 gene expression in MCAo mice brains; conditions: 5 mg/kg i.v., 18 hrs following MCAo
MCP-1 gene expression = MCP-1 gene expression in MCAo mice brains; conditions: 5 mg/kg i.v., 18 hours of MCAo
IL-10 gene expression = IL-10 gene expression in MCAo mice brains; conditions: 5 mg/kg i.v., 18 hours of MCAo
IL-1β gene expression = IL-1β gene expression in MCAo mice brains; conditions: 5 mg/kg i.v., 18 hrs following MCAo

recombinant COX-2, sequence (P35354 18-604): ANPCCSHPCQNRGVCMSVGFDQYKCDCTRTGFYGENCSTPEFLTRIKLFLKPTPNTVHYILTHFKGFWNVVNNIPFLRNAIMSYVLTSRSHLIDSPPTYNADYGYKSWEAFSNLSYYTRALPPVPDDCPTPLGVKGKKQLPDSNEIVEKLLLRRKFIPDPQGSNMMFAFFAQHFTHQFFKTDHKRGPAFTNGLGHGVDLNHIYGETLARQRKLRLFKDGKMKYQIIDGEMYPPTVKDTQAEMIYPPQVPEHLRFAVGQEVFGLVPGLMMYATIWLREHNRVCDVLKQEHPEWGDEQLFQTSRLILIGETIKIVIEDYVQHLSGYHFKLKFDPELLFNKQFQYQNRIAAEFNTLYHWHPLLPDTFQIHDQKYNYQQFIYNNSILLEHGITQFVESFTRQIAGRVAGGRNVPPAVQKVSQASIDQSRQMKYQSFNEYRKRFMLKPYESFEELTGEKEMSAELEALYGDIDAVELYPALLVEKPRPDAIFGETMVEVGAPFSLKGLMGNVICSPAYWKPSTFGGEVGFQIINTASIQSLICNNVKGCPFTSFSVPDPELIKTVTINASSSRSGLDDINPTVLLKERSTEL

Question: Which results are given for `CCCCCCC(C)(C)c1cc(O)c2c(c1)OC(C)(C)[C@H]1CC=C(CO)C[C@H]21` [dexanabinol, 1,1-dimethylheptyl-(3S,4S)-7-hydroxy-Δ^6-tetrahydrocannabinol]?
Answer: Inhibition of COX-2 enzymatic activity (recombinant COX-2): no inhibitory effect; Decrease in RNA levels of COX-2 (COX-2 gene expression [1]): 67%; IC50 (IL-1β secretion): 6 µM; Reduction of IL-2 fold of activation (IL-2 gene expression): 41%; Effect on Aspc-1 proliferation (Aspc-1): not affected; inhibition at 15 µM (Panc-1): 26%; Modulation of IL-6 gene expression (IL-6 gene expression): not modulated; Reduction of COX-2 gene activation vs vehicle (COX-2 gene expression [2]): 38%; Reduction of MCP-1 gene expression increase vs vehicle (MCP-1 gene expression): 41%; Further increase of IL-10 gene expression vs vehicle (IL-10 gene expression): 4.4 fold; Modulation of IL-1β gene expression (IL-1β gene expression): not modulated
